In brackets after ≈: the same amount, converted by molar mass.
Tests used:
Assay type in all cases: functional
Staphylococcus aureus [1] = assay: Antibacterial activity against methicillin-resistant Staphylococcus aureus CCARM 3506 after 20 hrs by twofold serial dilution technique; details: CCARM 3506, 20 h
Staphylococcus aureus [2] = assay: Antibacterial activity against quinolone-resistant Staphylococcus aureus CCARM 3505 after 20 hrs by twofold serial dilution technique; details: CCARM 3505, 20 h
Staphylococcus aureus [3] = assay: Antibacterial activity against methicillin-resistant Staphylococcus aureus CCARM 3167 after 20 hrs by twofold serial dilution technique; details: CCARM 3167, 20 h
Staphylococcus aureus [4] = assay: Antibacterial activity against Staphylococcus aureus KCTC 503 after 20 hrs by twofold serial dilution technique; details: KCTC 503, 20 h
Escherichia coli [5] = assay: Antibacterial activity against Escherichia coli CCARM 1924 after 20 hrs by twofold serial dilution technique; details: CCARM 1924, 20 h
Escherichia coli [6] = assay: Antibacterial activity against Escherichia coli CCARM 1356 after 20 hrs by twofold serial dilution technique; details: CCARM 1356, 20 h
Staphylococcus aureus [7] = assay: Antibacterial activity against Staphylococcus aureus RN4220 after 20 hrs by twofold serial dilution technique; details: RN4220, 20 h
Staphylococcus aureus [8] = assay: Antibacterial activity against quinolone-resistant Staphylococcus aureus CCARM 3519 after 20 hrs by twofold serial dilution technique; details: CCARM 3519, 20 h

| Compound | MIC (Staphylococcus aureus [1]) | MIC (Staphylococcus aureus [2]) | MIC (Staphylococcus aureus [3]) | MIC (Staphylococcus aureus [4]) | MIC (Escherichia coli [5]) | MIC (Escherichia coli [6]) | MIC (Staphylococcus aureus [7]) | MIC (Staphylococcus aureus [8]) |
| --- | --- | --- | --- | --- | --- | --- | --- | --- |
| O=C(O)CN1C(=O)/C(=C/c2cn(-c3ccccc3)nc2-c2cccc(Cl)c2)SC1=S | 32 µg/mL (≈ 70.2 µM) | 16 µg/mL (≈ 35.1 µM) | 16 µg/mL (≈ 35.1 µM) | > 64 µg/mL | > 64 µg/mL | > 64 µg/mL | 16 µg/mL (≈ 35.1 µM) | 64 µg/mL (≈ 140 µM) |
| COc1ccc(-c2nn(-c3ccccc3)cc2/C=C2\SC(=S)N(CC(=O)O)C2=O)cc1 | – | – | – | > 64 µg/mL | > 64 µg/mL | > 64 µg/mL | > 64 µg/mL | – |
| O=C(O)CN1C(=O)/C(=C/c2cn(-c3ccccc3)nc2-c2cccc(Br)c2)SC1=S | 16 µg/mL (≈ 32 µM) | 16 µg/mL (≈ 32 µM) | 8 µg/mL (≈ 16 µM) | 32 µg/mL (≈ 63.9 µM) | > 64 µg/mL | > 64 µg/mL | 8 µg/mL (≈ 16 µM) | 64 µg/mL (≈ 128 µM) |
| O=C(O)CN1C(=O)/C(=C/c2cn(-c3ccccc3)nc2-c2ccccc2)SC1=S | 32 µg/mL (≈ 75.9 µM) | 32 µg/mL (≈ 75.9 µM) | 32 µg/mL (≈ 75.9 µM) | 64 µg/mL (≈ 152 µM) | > 64 µg/mL | > 64 µg/mL | 64 µg/mL (≈ 152 µM) | 32 µg/mL (≈ 75.9 µM) |
| O=C(O)CN1C(=O)/C(=C/c2cn(-c3ccccc3)nc2-c2ccc(Cl)cc2Cl)SC1=S | 4 µg/mL (≈ 8.16 µM) | 8 µg/mL (≈ 16.3 µM) | 4 µg/mL (≈ 8.16 µM) | 8 µg/mL (≈ 16.3 µM) | > 64 µg/mL | > 64 µg/mL | 8 µg/mL (≈ 16.3 µM) | 8 µg/mL (≈ 16.3 µM) |
| O=C(O)CN1C(=O)/C(=C/c2cn(-c3ccccc3)nc2-c2ccc(F)cc2)SC1=S | – | – | – | > 64 µg/mL | > 64 µg/mL | > 64 µg/mL | > 64 µg/mL | – |
| O=C(O)CN1C(=O)/C(=C/c2cn(-c3ccccc3)nc2-c2ccccc2F)SC1=S | 64 µg/mL (≈ 146 µM) | 64 µg/mL (≈ 146 µM) | 64 µg/mL (≈ 146 µM) | 64 µg/mL (≈ 146 µM) | > 64 µg/mL | > 64 µg/mL | 64 µg/mL (≈ 146 µM) | 64 µg/mL (≈ 146 µM) |
| O=C(O)CN1C(=O)/C(=C/c2cn(-c3ccccc3)nc2-c2ccc(Br)cc2)SC1=S | 8 µg/mL (≈ 16 µM) | 8 µg/mL (≈ 16 µM) | 8 µg/mL (≈ 16 µM) | 8 µg/mL (≈ 16 µM) | > 64 µg/mL | > 64 µg/mL | 8 µg/mL (≈ 16 µM) | 8 µg/mL (≈ 16 µM) |
| COc1cccc(-c2nn(-c3ccccc3)cc2/C=C2\SC(=S)N(CC(=O)O)C2=O)c1 | 64 µg/mL (≈ 142 µM) | 64 µg/mL (≈ 142 µM) | 32 µg/mL (≈ 70.9 µM) | 64 µg/mL (≈ 142 µM) | > 64 µg/mL | > 64 µg/mL | 64 µg/mL (≈ 142 µM) | 64 µg/mL (≈ 142 µM) |
| O=C(O)CN1C(=O)/C(=C/c2cn(-c3ccccc3)nc2-c2ccccc2Cl)SC1=S | 32 µg/mL (≈ 70.2 µM) | 32 µg/mL (≈ 70.2 µM) | 16 µg/mL (≈ 35.1 µM) | 32 µg/mL (≈ 70.2 µM) | > 64 µg/mL | > 64 µg/mL | 32 µg/mL (≈ 70.2 µM) | 32 µg/mL (≈ 70.2 µM) |
| O=C(O)CN1C(=O)/C(=C/c2cn(-c3ccccc3)nc2-c2ccc([N+](=O)[O-])cc2)SC1=S | – | – | – | > 64 µg/mL | > 64 µg/mL | > 64 µg/mL | > 64 µg/mL | – |
| Cc1ccc(-c2nn(-c3ccccc3)cc2/C=C2\SC(=S)N(CC(=O)O)C2=O)c(C)c1 | 16 µg/mL (≈ 35.6 µM) | 16 µg/mL (≈ 35.6 µM) | 16 µg/mL (≈ 35.6 µM) | 16 µg/mL (≈ 35.6 µM) | > 64 µg/mL | > 64 µg/mL | 16 µg/mL (≈ 35.6 µM) | 16 µg/mL (≈ 35.6 µM) |
| O=C(O)CN1C(=O)/C(=C/c2cn(-c3ccccc3)nc2-c2ccc3ccccc3c2)SC1=S | – | – | – | > 64 µg/mL | > 64 µg/mL | > 64 µg/mL | > 64 µg/mL | – |
| O=C(O)CN1C(=O)/C(=C/c2cn(-c3ccccc3)nc2-c2ccc(Cl)cc2)SC1=S | 8 µg/mL (≈ 17.5 µM) | 8 µg/mL (≈ 17.5 µM) | 8 µg/mL (≈ 17.5 µM) | 8 µg/mL (≈ 17.5 µM) | > 64 µg/mL | > 64 µg/mL | 8 µg/mL (≈ 17.5 µM) | 16 µg/mL (≈ 35.1 µM) |
| COc1ccccc1-c1nn(-c2ccccc2)cc1/C=C1\SC(=S)N(CC(=O)O)C1=O | – | – | – | > 64 µg/mL | > 64 µg/mL | > 64 µg/mL | > 64 µg/mL | – |
| O=C(O)CCN1C(=O)/C(=C/c2cn(-c3ccccc3)nc2-c2ccc(Cl)cc2)SC1=S | 4 µg/mL (≈ 8.51 µM) | 4 µg/mL (≈ 8.51 µM) | 4 µg/mL (≈ 8.51 µM) | 16 µg/mL (≈ 34 µM) | > 64 µg/mL | > 64 µg/mL | 8 µg/mL (≈ 17 µM) | 8 µg/mL (≈ 17 µM) |
| O=C(O)CCN1C(=O)/C(=C/c2cn(-c3ccccc3)nc2-c2ccc(Cl)cc2Cl)SC1=S | 4 µg/mL (≈ 7.93 µM) | 4 µg/mL (≈ 7.93 µM) | 4 µg/mL (≈ 7.93 µM) | 4 µg/mL (≈ 7.93 µM) | > 64 µg/mL | > 64 µg/mL | 8 µg/mL (≈ 15.9 µM) | 4 µg/mL (≈ 7.93 µM) |
| O=C(O)CCCN1C(=O)/C(=C/c2cn(-c3ccccc3)nc2-c2ccc(Cl)cc2Cl)SC1=S | 4 µg/mL (≈ 7.72 µM) | 4 µg/mL (≈ 7.72 µM) | 4 µg/mL (≈ 7.72 µM) | 4 µg/mL (≈ 7.72 µM) | > 64 µg/mL | > 64 µg/mL | 8 µg/mL (≈ 15.4 µM) | 4 µg/mL (≈ 7.72 µM) |
| O=C(O)CCCCN1C(=O)/C(=C/c2cn(-c3ccccc3)nc2-c2ccc(Cl)cc2)SC1=S | – | – | – | > 64 µg/mL | > 64 µg/mL | > 64 µg/mL | > 64 µg/mL | – |
| O=C(O)CCCCN1C(=O)/C(=C/c2cn(-c3ccccc3)nc2-c2ccc(Cl)cc2Cl)SC1=S | 2 µg/mL (≈ 3.76 µM) | 2 µg/mL (≈ 3.76 µM) | 2 µg/mL (≈ 3.76 µM) | 4 µg/mL (≈ 7.51 µM) | > 64 µg/mL | > 64 µg/mL | 4 µg/mL (≈ 7.51 µM) | 2 µg/mL (≈ 3.76 µM) |
| O=C(O)CCCCCN1C(=O)/C(=C/c2cn(-c3ccccc3)nc2-c2ccc(Cl)cc2)SC1=S | – | – | – | > 64 µg/mL | > 64 µg/mL | > 64 µg/mL | > 64 µg/mL | – |
| O=C(O)CCCCCN1C(=O)/C(=C/c2cn(-c3ccccc3)nc2-c2ccc(Cl)cc2Cl)SC1=S | 32 µg/mL (≈ 58.6 µM) | 32 µg/mL (≈ 58.6 µM) | 4 µg/mL (≈ 7.32 µM) | 8 µg/mL (≈ 14.6 µM) | > 64 µg/mL | > 64 µg/mL | 32 µg/mL (≈ 58.6 µM) | 4 µg/mL (≈ 7.32 µM) |
| Cc1ccc(-c2nn(-c3ccccc3)cc2/C=C2\SC(=S)N(CC(=O)O)C2=O)cc1 | 16 µg/mL (≈ 36.7 µM) | 16 µg/mL (≈ 36.7 µM) | 16 µg/mL (≈ 36.7 µM) | > 64 µg/mL | > 64 µg/mL | > 64 µg/mL | 16 µg/mL (≈ 36.7 µM) | 64 µg/mL (≈ 147 µM) |
| O=C(O)CCCN1C(=O)/C(=C/c2cn(-c3ccccc3)nc2-c2ccc(Cl)cc2)SC1=S | 4 µg/mL (≈ 8.26 µM) | 4 µg/mL (≈ 8.26 µM) | 4 µg/mL (≈ 8.26 µM) | 4 µg/mL (≈ 8.26 µM) | > 64 µg/mL | > 64 µg/mL | 8 µg/mL (≈ 16.5 µM) | 4 µg/mL (≈ 8.26 µM) |
| CCn1cc(C(=O)O)c(=O)c2cc(F)c(N3CCNCC3)cc21 [NORFLOXACIN] | 4 µg/mL (≈ 12.5 µM) | > 64 µg/mL | 8 µg/mL (≈ 25.1 µM) | 2 µg/mL (≈ 6.26 µM) | 16 µg/mL (≈ 50.1 µM) | 16 µg/mL (≈ 50.1 µM) | 2 µg/mL (≈ 6.26 µM) | > 64 µg/mL |
| Cc1onc(-c2ccccc2)c1C(=O)N[C@@H]1C(=O)N2[C@@H]1SC(C)(C)[C@@H]2C(=O)O [OXACILLIN] | > 64 µg/mL | 1 µg/mL (≈ 2.49 µM) | > 64 µg/mL | 1 µg/mL (≈ 2.49 µM) | > 64 µg/mL | > 64 µg/mL | 1 µg/mL (≈ 2.49 µM) | 1 µg/mL (≈ 2.49 µM) |

Reference: ChEMBL document CHEMBL1932976, “Synthesis of novel 1,3-diaryl pyrazole derivatives bearing rhodanine-3-fatty acid moieties as potential antibacterial agents” (2012)
